The text below walks through data of patent US12637461B2, “Compounds for the activation of AMPK” (PFIZER INC., priority 2022, dated 2026).

The assay has as its target T1, human AMPK α2β2γ3 (Homo sapiens, UniProt O43741+P54646+Q9UGI9).
T1 construct: expressed in transfected cells; host or cells: HEK293AD cells, MaxCyte bulk electroporation
Nature of the assay: Primary cellular assay: γ3 associated phospho-Thr172 AMPK detection (custom pAMPK Surefire AlphaLISA) in α2β2γ3 bulk transiently transfected HEK293 cells. It counts as cell-based. Particulars: activation of human AMPK α2β2γ3 (γ3 pThr172 AMPK signal) in transiently transfected HEK293 cells, 20 minutes compound incubation; for EC50: geometric mean EC50, read-out: Assay GMean EC50; for Assay GMean Asy. Max (%) / Emax: geometric mean of the asymptotic max; for Emax: 20 min, read-out: Assay GMean Asy. Max (%). How it is done:
Primary Cellular Assay—γ3 Associated Phospho-Thr172 AMPK Detection in α2β2γ3 Bulk Transiently Transfected HEK293 Cells
The cellular potencies of the compounds were evaluated using a custom pAMPK Surefire AlphaLISA designed to assess γ3 associated phospho-Thr172 AMPK and modulation by small molecules in AMPK α2β2γ3 transiently transfected HEK293 cells.
A pAMPK Surefire AlphaLISA (PE-ASLU-PAMPK) assay available through Perkin Elmer was modified to selectively assess γ3 pThr172 AMPK content (as opposed to total pThr172 AMPK) by labeling a γ3 antibody with a CaptSure™ tag and substituting it for the total α1c/α2 AMPK labeled antibodies in the kit. In the modified assay, the overall abundance of γ3 AMPK is recognized by the CaptSure γ3 antibody and the phosphorylated AMPK is recognized by biotinylated pThr172 antibody. Subsequent reactivity with streptavitin donor beads and anti CaptSure conjugated acceptor beads brings the molecules into close proximity. Upon excitation at 680 nm, the donor bead converts ambient oxygen to a more excited singlet state which reacts with the acceptor bead and emits light at 520 to 620 nm. The intensity of the signal is proportional to the level of γ3 associated pThr172 AMPK phosphorylation.
In short, AMPK-α2+β2+γ3 MaxCyte bulk-transfected HEK293AD cells were thawed in growth media (DMEM High glucose+10% FBS) in a collagen-coated T150 flask and the cells were allowed to adhere and grow overnight in a 37° C. incubator. The following day, the cells were harvested and resuspended in plating medium (DMEM Low glucose+10% FBS) at a concentration of 100,000 cells per mL and 50 μL of this cell suspension was added to all wells of a 384-well plate using a Multidrop Combi. The cells were allowed to adhere and grow for 2 days in a 37° C. incubator. On assay day, compounds were diluted in 100% dimethyl sulfoxide (DMSO) in a 11 dose, half log dilution scheme and spotted in the cell plates at 1000× the final concentration. Compound incubations were performed in plating media for 20 minutes. Cells were washed with PBS, lysed and the signal was generated by subsequent additions of RB1 reagent from the kit, 1:1000 CaptSure γ3 labeled antibody in 1× immunoassay buffer, Anti-CaptSure acceptor beads and Streptavitin donor beads at final concentration of […]. The γ3 pThr172 AMPK signal was developed using EnVision™ multilabel reader (Perkin Elmer) using Alphascreen settings. The fluorescence emission was used to calculate the % effect relative to the HPE (30 μM) and ZPE (DMSO). EC50 curves were generated with the ActivityBase software using the XLfit model 205 to determine EC50 and Emax values.
For screening purposes, bulk AMPK-α2+β2+γ3 MaxCyte bulk transfection into HEK293AD cells were generated to support SAR screening as follows.
HEK293AD cells were seeded into 10 flasks at 2.7×10^7 cells per flask. The following day 12 mL of Trypl E dissociation reagent were added to each flask to lift the cells and the cells were then spun at 300×g for 5 minutes. Cells were washed once in MaxCyte EP buffer and then resuspended in MaxCyte EP buffer at 1×10^8 cells per mL. For transfection, 500×10^6 cells in 500 μl MaxCyte EP buffer were placed in a CL1.1 Processing Assembly (electroporation cell) with 1 mg/mL ([…]) of each of the plasmids pcDNA3.1(+)-human AMPK alpha 2, pcDNA3.1(+)-human AMPK beta 2 and pcDNA3.1(+)-human AMPK gamma 3 and the electroporation was carried out on the MaxCyte STX using the HEK293 electroporation protocol. Following electroporation, cells were transferred to a T175 flask containing growth medium (DMEM High glucose+10% FBS) and allowed to recover for 25 minutes, then the cells were resuspended to final volume of 900 mL and distributed into 6XT175 flasks and allowed to adhere and grow overnight in a 37° C. incubator. […]
(In general: Alpha assays give light when donor and acceptor beads are brought close together.)

One may read the EC50 as the concentration giving half of the maximal effect.

T1 sequence (P54646 whole entry): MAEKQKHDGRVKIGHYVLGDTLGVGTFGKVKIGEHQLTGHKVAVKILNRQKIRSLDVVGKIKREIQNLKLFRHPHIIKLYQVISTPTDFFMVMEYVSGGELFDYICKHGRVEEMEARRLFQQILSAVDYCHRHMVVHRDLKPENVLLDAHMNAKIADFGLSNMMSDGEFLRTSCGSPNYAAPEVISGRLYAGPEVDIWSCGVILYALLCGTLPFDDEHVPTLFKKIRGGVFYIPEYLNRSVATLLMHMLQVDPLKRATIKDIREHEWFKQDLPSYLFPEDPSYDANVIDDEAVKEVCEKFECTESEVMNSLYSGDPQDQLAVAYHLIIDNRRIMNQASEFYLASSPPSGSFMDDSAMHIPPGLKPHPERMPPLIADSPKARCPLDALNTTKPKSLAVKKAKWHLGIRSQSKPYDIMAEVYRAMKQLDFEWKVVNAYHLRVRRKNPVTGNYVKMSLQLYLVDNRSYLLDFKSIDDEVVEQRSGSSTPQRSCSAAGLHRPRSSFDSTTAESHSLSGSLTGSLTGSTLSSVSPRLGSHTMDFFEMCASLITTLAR
T1 sequence (O43741 whole entry): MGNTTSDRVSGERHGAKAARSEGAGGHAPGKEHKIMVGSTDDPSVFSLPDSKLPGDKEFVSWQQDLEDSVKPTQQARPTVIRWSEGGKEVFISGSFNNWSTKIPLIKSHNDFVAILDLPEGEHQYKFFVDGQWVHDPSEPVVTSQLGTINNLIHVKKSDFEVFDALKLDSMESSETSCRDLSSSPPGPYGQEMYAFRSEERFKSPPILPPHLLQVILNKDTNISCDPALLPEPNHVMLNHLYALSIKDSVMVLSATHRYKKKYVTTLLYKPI
T1 sequence (Q9UGI9 whole entry): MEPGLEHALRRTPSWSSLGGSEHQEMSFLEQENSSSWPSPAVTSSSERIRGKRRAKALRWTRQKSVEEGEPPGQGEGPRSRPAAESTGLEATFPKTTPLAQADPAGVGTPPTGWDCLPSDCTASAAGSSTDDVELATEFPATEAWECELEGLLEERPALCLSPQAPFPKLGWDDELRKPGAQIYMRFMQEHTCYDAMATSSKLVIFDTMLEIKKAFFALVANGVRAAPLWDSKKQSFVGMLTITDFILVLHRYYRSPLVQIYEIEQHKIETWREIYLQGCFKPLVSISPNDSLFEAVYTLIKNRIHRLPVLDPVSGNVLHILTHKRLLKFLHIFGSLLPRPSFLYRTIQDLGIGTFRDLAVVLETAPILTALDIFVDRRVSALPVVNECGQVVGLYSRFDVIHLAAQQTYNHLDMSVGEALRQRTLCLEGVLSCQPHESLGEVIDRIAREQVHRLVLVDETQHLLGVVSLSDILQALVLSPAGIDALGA

Turning to `Cn1cc(F)c(N2C[C@](C)(c3cccc(Cl)c3F)c3c(cnc(NC4CN(C(=O)C(C)(O)C5CC5)C4)c3F)C2=O)n1` (single isomer, unassigned) [Example 9], the EC50 is more than 55.7 nM and the “Assay GMean Asy. Max (%)” value is given as 118.8%.
Consider `Cn1cc(F)c(N2C[C@](C)(c3cccc(Cl)c3F)c3c(cnc(NC4CN(C(=O)C(C)(O)C5CC5)C4)c3F)C2=O)n1` (single isomer, unassigned) [Example 10], for which the 50% effective concentration (EC50) was determined as 21.3 nM and the “Assay GMean Asy. Max (%)” value worked out at 89.6%.
For `C[C@]1(c2cccc(Cl)c2F)CN(c2ccc([C@H]3COCCN3)cn2)C(=O)c2cnc(NC3CN(C(=O)c4cccnn4)C3)c(F)c21` (single isomer, unassigned) [Example 16], the Emax worked out at 75.4% and the EC50 was determined as 759 nM.
In the case of `C[C@]1(c2cccc(Cl)c2F)CN(c2ccc([C@@H]3COCCN3)cn2)C(=O)c2cnc(NC3CN(C(=O)c4cccnn4)C3)c(F)c21` (single isomer, unassigned) [Example 17], the Emax was determined as 120% and the EC50 came out at 144 nM.
For `Cn1cc(F)c(N2CC(C)(c3ccc(F)c(Cl)c3F)c3c(cnc(NC4CN(C(=O)[C@@H]5C[C@@H]5F)C4)c3F)C2=O)n1` (single isomer, unassigned) [Example 23], the Emax turned out to be 91.4% and the EC50 is 28.1 nM.
Taken in the same sequence, the figures for `CN1CCC(C(=O)N2CC[C@@H](Nc3ncc4c(c3F)C(C)(c3cccc(Cl)c3F)CN(c3ncccc3F)C4=O)C2)CC1` (single isomer, unassigned) [Example 24] were 139% and 79.5 nM.
As to `Cn1cc(F)c(N2CC(C)(c3cccc(Cl)c3F)c3c(cnc(N[C@@H]4CCN(C(=O)N5C[C@@H]6C[C@H]5CO6)C4)c3F)C2=O)n1` (single isomer, unassigned) [Example 25], the Emax came to 52.2% and the EC50 amounted to 160 nM.
Consider `CC1(c2cccc(Cl)c2F)CN(c2ncccc2F)C(=O)c2cnc(NC3CN(C(=O)CO)C3)nc21` (single isomer, unassigned) [Example 26, 8-(3-Chloro-2-fluorophenyl)-6-(3-fluoropyridin-2-yl)-2-{[1-(hydroxyacetyl)azetidin-3-yl]amino}-8-methyl-7,8-dihydropyrido[4,3-d]pyrimidin-5(6H)-one], for which the Emax came out at 47.6% and the EC50 turned out to be 183 nM.
For the compound `CC1(c2cccc(Cl)c2F)CN(c2ncccc2F)C(=O)c2cnc(NC3CN(C(=O)C4(O)CC4)C3)nc21` (single isomer, unassigned) [Example 27, 8-(3-Chloro-2-fluorophenyl)-6-(3-fluoropyridin-2-yl)-2-{[1-(1-hydroxycyclopropane-1-carbonyl)azetidin-3-yl]amino}-8-methyl-7,8-dihydropyrido[4,3-d]pyrimidin-5(6H)-one], the Emax stood at 174% and the EC50 was 177 nM.
As to `CC1(c2cccc(Cl)c2F)CN(c2ncccc2F)C(=O)c2cnc(NC3CN(C(=O)C4(O)CC4(C)C)C3)nc21` (single isomer, unassigned) [Example 28, 8-(3-Chloro-2-fluorophenyl)-6-(3-fluoropyridin-2-yl)-2-{[1-(1-hydroxy-2,2-dimethylcyclopropane-1-carbonyl)azetidin-3-yl]amino}-8-methyl-7,8-dihydropyrido[4,3-d]pyrimidin-5(6H)-one], the EC50 worked out at 571 nM and the “Assay GMean Asy. Max (%)” value amounted to 98.9%.
Regarding `CC1(c2cccc(Cl)c2F)CN(c2ncccc2F)C(=O)c2cnc(NC3CN(C(=O)C4(O)CC4(C)C)C3)nc21` (single isomer, unassigned) [Example 29, 8-(3-Chloro-2-fluorophenyl)-6-(3-fluoropyridin-2-yl)-2-{[1-(1-hydroxy-2,2-dimethylcyclopropane-1-carbonyl)azetidin-3-yl]amino}-8-methyl-7,8-dihydropyrido[4,3-d]pyrimidin-5(6H)-one], the EC50 is 181 nM and the “Assay GMean Asy. Max (%)” value is on record as 216%.
With `Cn1cc(F)c(N2CC(C)(c3cccc(Cl)c3F)c3nc(NC4CN(C(=O)[C@@H]5C[C@@H]5F)C4)ncc3C2=O)n1` (single isomer, unassigned) [Example 30], the Emax was 178% and the EC50 was 740 nM.
For the compound `CC1(c2cccc(Cl)c2F)CN(c2ccc(N)cn2)C(=O)c2cnc(NC3CN(C(=O)[C@@H]4C[C@@H]4F)C3)nc21` (single isomer, unassigned) [Example 31], the Emax came out at 110% and the EC50 was 221 nM.
Turning to `CC1(c2cccc(Cl)c2F)CN(c2ncccc2F)C(=O)c2cnc(NC3CN(C(=O)N4C[C@H]5C[C@@H]4[C@@H](O)C5)C3)nc21` (single isomer, unassigned) [Example 32], the Emax amounted to 173% and the EC50 came out at 219 nM.
Take `CN(C(=O)CN1CC(Nc2ccc3c(c2F)C(C)(c2cccc(Cl)c2F)CN(c2nn(C)cc2F)C3=O)C1)C1CC1` (single isomer, unassigned) [Example 34, 2-(3-{[4-(3-Chloro-2-fluorophenyl)-5-fluoro-2-(4-fluoro-1-methyl-1H-pyrazol-3-yl)-4-methyl-1-oxo-1,2,3,4-tetrahydroisoquinolin-6-yl]amino}azetidin-1-yl)-N-cyclopropyl-N-methylacetamide]: the Emax was 208% and the EC50 was found to be 31.7 nM.
Taken in the same sequence, the figures for `CC1(c2cccc(Cl)c2F)CN(c2ccc(CO)cn2)C(=O)c2ccc(NC3CN(C(=O)N4C[C@@H]5C[C@H]4CO5)C3)c(F)c21` (single isomer, unassigned) [Example 37] were 163% and 19.1 nM.
For `CN(C)c1nc(NC2CN(C(=O)C3(O)CC3)C2)nc2c1C(=O)N(c1ncccc1F)CC2(C)c1cccc(Cl)c1F` (single isomer, unassigned) [Example 38, 8-(3-Chloro-2-fluorophenyl)-4-(dimethylamino)-6-(3-fluoropyridin-2-yl)-2-{[1-(1-hydroxycyclopropane-1-carbonyl)azetidin-3-yl]amino}-8-methyl-7,8-dihydropyrido[4,3-d]pyrimidin-5(6H)-one], the Emax worked out at 217% and the EC50 came to 146 nM.
Regarding `Cn1cc(F)c(N2C[C@](C)(c3cccc(Cl)c3F)c3c(cnc(NC4CN(C(=O)C(O)C5CC5)C4)c3F)C2=O)n1` (single isomer, unassigned) [compound 42], the Emax was 76.2% and the EC50 was 59.1 nM.
As to `Cn1cc(F)c(N2C[C@](C)(c3cccc(Cl)c3F)c3c(cnc(NC4CN(C(=O)C(O)C5CC5)C4)c3F)C2=O)n1` (single isomer, unassigned) [compound 43], the EC50 came out at 172 nM and the “Assay GMean Asy. Max (%)” value is recorded as 77.4%.
With `Cn1cc(F)c(N2C[C@](C)(c3cccc(Cl)c3F)c3c(cnc(NC4CN(C(=O)C(O)CC(F)(F)F)C4)c3F)C2=O)n1` (single isomer, unassigned) [compound 44], the EC50 was 78.1 nM and the “Assay GMean Asy. Max (%)” value was determined as 77.9%.
On the same counts, the results for `Cn1cc(F)c(N2C[C@](C)(c3cccc(Cl)c3F)c3c(cnc(NC4CN(C(=O)C(O)CC(F)(F)F)C4)c3F)C2=O)n1` (single isomer, unassigned) [compound 45] are 66.4 nM and 100%.
